This is an account of results in PubChem BioAssay AID1259407 (Chemical Carcinogenesis Research Information System (CCRIS), 2018).

Calls of active or inactive are those of the source. How the calls were made is not given here.

The test system of the series is CCRIS mutagenicity, Ames/micronucleus/aberration tests. Description: CCRIS mutagenicity studies.
Setting [1] is: Test System: AMES SALMONELLA TYPHIMURIUM, Strain/Indicator: TA98, Metabolic Activation: NONE, Method: STANDARD PLATE.
[2] abbreviates: Test System: AMES SALMONELLA TYPHIMURIUM, Strain/Indicator: TA100, Metabolic Activation: NONE, Method: STANDARD PLATE.
Setting [3] is: Test System: AMES SALMONELLA TYPHIMURIUM, Strain/Indicator: TA102, Metabolic Activation: NONE, Method: STANDARD PLATE.
Where [4] appears, read: Test System: AMES SALMONELLA TYPHIMURIUM, Strain/Indicator: TA100, Metabolic Activation: RAT, LIVER, S-9, AROCLOR 1254, Method: STANDARD PLATE.
[5] abbreviates: Test System: AMES SALMONELLA TYPHIMURIUM, Strain/Indicator: TA1535, Metabolic Activation: NONE, Method: STANDARD PLATE.
Where [6] appears, read: Test System: AMES SALMONELLA TYPHIMURIUM, Strain/Indicator: TA1535, Metabolic Activation: RAT, LIVER, S-9, AROCLOR 1254, Method: STANDARD PLATE.
Where [7] appears, read: Test System: AMES SALMONELLA TYPHIMURIUM, Strain/Indicator: TA100, Metabolic Activation: NONE, Method: PREINCUBATION

`CC1(C)CC(N)CC(C)(C)N1[O]`: the mutagenic call by setting is: under setting [1], “active; positive”; (Test System: AMES SALMONELLA TYPHIMURIUM, Strain/Indicator: TA98, Metabolic Activation: RAT LIVER S-9, PCB, Method: STANDARD PLATE) “inactive; negative”; under setting [2], “active; positive”; (Test System: AMES SALMONELLA TYPHIMURIUM, Strain/Indicator: TA100, Metabolic Activation: RAT LIVER S-9, PCB, Method: STANDARD PLATE) “inactive; negative”; under setting [3], “inactive; negative”.
For the compound `Oc1cc2ccccc2c2cc3c(ccc4ccccc43)nc12`, the mutagenic call (Test System: AMES SALMONELLA TYPHIMURIUM, Strain/Indicator: TA100, Metabolic Activation: GUINEA PIG, LIVER, S-9, 3-METHYLCHOLANTHRENE, Method: STANDARD PLATE) is “inactive; negative” and the mutagenic call (Test System: CHINESE HAMSTER V-79, Strain/Indicator: V-79/6-THIOGUANINE, Metabolic Activation: GUINEA PIG, LIVER, S-9, 3-METHYLCHOLANTHRENE) was “inactive; negative”.
On to `COc1cc(OC)c2nc3occc3c(OC)c2c1`, for which the mutagenic call was “active; positive” (Test System: AMES SALMONELLA TYPHIMURIUM, Strain/Indicator: TA98, Metabolic Activation: RAT, LIVER, S-9, PHENOBARBITAL, Method: STANDARD PLATE) and “active; positive” (Test System: AMES SALMONELLA TYPHIMURIUM, Strain/Indicator: TA100, Metabolic Activation: RAT, LIVER, S-9, PHENOBARBITAL, Method: STANDARD PLATE).
As for `C[N+](C)(CF)CCO`, the mutagenic call is “inactive; negative” (Test System: Mouse lymphoma, Strain/Indicator: L5178Y (tk+/tk-), Metabolic Activation: None, Method: Suspension/plate) and “inactive; negative” (Test System: Mouse lymphoma, Strain/Indicator: L5178Y (tk+/tk-), Metabolic Activation: Rat, Liver, S-9, Aroclor 1254, Method: Suspension/plate).
On to `CC(O)CCC(=O)c1ccoc1` (centres undefined), for which the mutagenic call by setting is: (Test System: AMES SALMONELLA TYPHIMURIUM, Strain/Indicator: TA98, Metabolic Activation: HAMSTER, LIVER, S-9, AROCLOR 1254, Method: STANDARD PLATE) “inactive; negative”; under setting [1], “inactive; negative”; (Test System: AMES SALMONELLA TYPHIMURIUM, Strain/Indicator: TA98, Metabolic Activation: RAT, LIVER, S-9, AROCLOR 1254, Method: STANDARD PLATE) “inactive; negative”; (Test System: AMES SALMONELLA TYPHIMURIUM, Strain/Indicator: TA100, Metabolic Activation: HAMSTER, LIVER, S-9, AROCLOR 1254, Method: STANDARD PLATE) “inactive; negative”; under setting [2], “inactive; negative”; under setting [4], “inactive; negative”. The mutagenic call is “inactive; negative” (Test System: AMES SALMONELLA TYPHIMURIUM, Strain/Indicator: TA1535, Metabolic Activation: HAMSTER, LIVER, S-9, AROCLOR 1254, Method: STANDARD PLATE); “inactive; negative” under setting [5]; “inactive; negative” under setting [6]; “inactive; negative” (Test System: AMES SALMONELLA TYPHIMURIUM, Strain/Indicator: TA1537, Metabolic Activation: HAMSTER, LIVER, S-9, AROCLOR 1254, Method: STANDARD PLATE); “inactive; negative” (Test System: AMES SALMONELLA TYPHIMURIUM, Strain/Indicator: TA1537, Metabolic Activation: NONE, Method: STANDARD PLATE); “inactive; negative” (Test System: AMES SALMONELLA TYPHIMURIUM, Strain/Indicator: TA1537, Metabolic Activation: RAT, LIVER, S-9, AROCLOR 1254, Method: STANDARD PLATE). Moreover, the mutagenic call runs as follows: (Test System: AMES SALMONELLA TYPHIMURIUM, Strain/Indicator: TA1538, Metabolic Activation: HAMSTER, LIVER, S-9, AROCLOR 1254, Method: STANDARD PLATE) “inactive; negative”; (Test System: AMES SALMONELLA TYPHIMURIUM, Strain/Indicator: TA1538, Metabolic Activation: NONE, Method: STANDARD PLATE) “inactive; negative”; (Test System: AMES SALMONELLA TYPHIMURIUM, Strain/Indicator: TA1538, Metabolic Activation: RAT, LIVER, S-9, AROCLOR 1254, Method: STANDARD PLATE) “inactive; negative”.
Consider `C[CH2][Hg][S]c1ccccc1C(=O)O`, for which the mutagenic call (End Point: IN VITRO MICRONUCLEUS, Test System: HAMSTER V79 CELLS, Metabolic Activation: NONE) was “active; positive”; the mutagenic call (Test System: AMES SALMONELLA TYPHIMURIUM, Strain/Indicator: TA98, Metabolic Activation: HAMSTER, LIVER, S-9, AROCLOR 1254 (10%), Method: PREINCUBATION) is “inactive; negative”; the mutagenic call (Test System: AMES SALMONELLA TYPHIMURIUM, Strain/Indicator: TA98, Metabolic Activation: NONE, Method: PREINCUBATION) was “inactive; negative”; the mutagenic call (Test System: AMES SALMONELLA TYPHIMURIUM, Strain/Indicator: TA98, Metabolic Activation: RAT, LIVER, S-9, AROCLOR 1254 (10%), Method: PREINCUBATION) is “inactive; negative”; the mutagenic call (Test System: AMES SALMONELLA TYPHIMURIUM, Strain/Indicator: TA100, Metabolic Activation: HAMSTER, LIVER, S-9, AROCLOR 1254 (10%), Method: PREINCUBATION) is “inactive; negative”; the mutagenic call under setting [7] is “inactive; negative”. In addition, the mutagenic call was “inactive; negative” (Test System: AMES SALMONELLA TYPHIMURIUM, Strain/Indicator: TA100, Metabolic Activation: RAT, LIVER, S-9, AROCLOR 1254 (10%), Method: PREINCUBATION); “inactive; negative” (Test System: AMES SALMONELLA TYPHIMURIUM, Strain/Indicator: TA1535, Metabolic Activation: HAMSTER, LIVER, S-9, AROCLOR 1254 (10%), Method: PREINCUBATION); “inactive; negative” (Test System: AMES SALMONELLA TYPHIMURIUM, Strain/Indicator: TA1535, Metabolic Activation: NONE, Method: PREINCUBATION); “inactive; negative” (Test System: AMES SALMONELLA TYPHIMURIUM, Strain/Indicator: TA1535, Metabolic Activation: RAT, LIVER, S-9, AROCLOR 1254 (10%), Method: PREINCUBATION); “inactive; negative” (Test System: AMES SALMONELLA TYPHIMURIUM, Strain/Indicator: TA1537, Metabolic Activation: HAMSTER, LIVER, S-9, AROCLOR 1254 (10%), Method: PREINCUBATION); “inactive; negative” (Test System: AMES SALMONELLA TYPHIMURIUM, Strain/Indicator: TA1537, Metabolic Activation: NONE, Method: PREINCUBATION). Moreover, the mutagenic call (Test System: AMES SALMONELLA TYPHIMURIUM, Strain/Indicator: TA1537, Metabolic Activation: RAT, LIVER, S-9, AROCLOR 1254 (10%), Method: PREINCUBATION) was “inactive; negative”.
As to `O=C1c2ccccc2C(=O)N1SC(Cl)(Cl)Cl`, the mutagenic call is “inactive; negative” under setting [1]; “active; positive” under setting [7]; “active; positive” under setting [4]; “active; positive” (Test System: AMES SALMONELLA TYPHIMURIUM, Strain/Indicator: TA100, Metabolic Activation: RAT, LIVER, S-9, Method: STANDARD PLATE); “active; positive” (Test System: AMES SALMONELLA TYPHIMURIUM, Strain/Indicator: TA100, Metabolic Activation: S-9 MIX, Method: STANDARD PLATE); “inactive; negative” under setting [3]. Besides, the mutagenic call was “active; positive” (Test System: AMES SALMONELLA TYPHIMURIUM, Strain/Indicator: TA104, Metabolic Activation: NONE, Method: STANDARD PLATE); “active; positive” (Test System: AMES SALMONELLA TYPHIMURIUM, Strain/Indicator: TA104, Metabolic Activation: RAT, LIVER, S-9, PHENOBARBITAL, Method: STANDARD PLATE); “active; positive” under setting [5]; “active; positive” under setting [6]; “active; positive” (Test System: E. COLI, Strain/Indicator: WP2, Metabolic Activation: NONE, Method: STANDARD PLATE); “active; positive” (Test System: E. COLI, Strain/Indicator: WP2, Metabolic Activation: RAT, LIVER, S-9, Method: STANDARD PLATE). In addition, the mutagenic call was “active; positive” (Test System: E. COLI, Strain/Indicator: WP2 UVRA, Metabolic Activation: NONE, Method: STANDARD PLATE) and “active; positive” (Test System: E. COLI, Strain/Indicator: WP2 UVRA, Metabolic Activation: RAT, LIVER, S-9, AROCLOR 1254, Method: STANDARD PLATE).
In the case of `O=[N+]([O-])c1cccc(S(=O)(=O)OC[C@H]2CO2)c1`, under setting [2], the mutagenic call is “active; positive”.
